# Values of other authors in patent publication US11826320B2, “Treating COVID 19 by using a mixture of cannabinoids in micellized form to lower levels of pro-inflammatory cytokines and reduce risk of cytokine storm” (WSMEF, LLC, priority 2020, dated 2023).
# Legend:
# [1] = target: T1, serotonin 5-HT1A receptor (Homo sapiens, UniProt P08908)
# T1 sequence (P08908 1-422): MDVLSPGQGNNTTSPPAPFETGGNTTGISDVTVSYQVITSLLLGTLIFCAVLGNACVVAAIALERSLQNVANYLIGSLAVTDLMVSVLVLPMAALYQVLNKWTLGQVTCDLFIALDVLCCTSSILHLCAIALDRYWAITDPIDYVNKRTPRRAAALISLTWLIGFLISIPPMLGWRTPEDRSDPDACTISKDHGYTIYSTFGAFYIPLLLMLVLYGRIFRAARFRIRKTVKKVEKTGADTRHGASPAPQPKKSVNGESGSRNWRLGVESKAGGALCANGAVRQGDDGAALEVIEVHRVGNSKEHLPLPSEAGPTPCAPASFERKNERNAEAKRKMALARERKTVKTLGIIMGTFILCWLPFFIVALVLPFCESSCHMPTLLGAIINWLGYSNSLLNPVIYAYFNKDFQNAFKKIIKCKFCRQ
# [2] = target: μ-opioid receptor (Homo sapiens, UniProt P35372)
# [3] = test system: SARS-CoV-2; details: purified CBD
# [4] = target: cannabinoid CB2 receptor (Homo sapiens, UniProt P34972)
# [5] = target: δ-opioid receptor (Homo sapiens, UniProt P41143)
# δ-opioid receptor, sequence (P41143 whole entry): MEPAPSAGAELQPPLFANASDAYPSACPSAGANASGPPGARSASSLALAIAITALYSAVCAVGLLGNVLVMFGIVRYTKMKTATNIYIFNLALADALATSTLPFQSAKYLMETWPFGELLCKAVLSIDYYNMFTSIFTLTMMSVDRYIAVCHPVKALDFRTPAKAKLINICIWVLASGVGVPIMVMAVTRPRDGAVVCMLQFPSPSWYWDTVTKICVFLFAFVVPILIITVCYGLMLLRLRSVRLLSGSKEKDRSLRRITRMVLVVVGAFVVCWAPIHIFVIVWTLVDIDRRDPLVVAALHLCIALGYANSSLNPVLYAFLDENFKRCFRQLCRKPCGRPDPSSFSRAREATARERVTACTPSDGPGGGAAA
# cannabinoid CB2 receptor, sequence (P34972 whole entry): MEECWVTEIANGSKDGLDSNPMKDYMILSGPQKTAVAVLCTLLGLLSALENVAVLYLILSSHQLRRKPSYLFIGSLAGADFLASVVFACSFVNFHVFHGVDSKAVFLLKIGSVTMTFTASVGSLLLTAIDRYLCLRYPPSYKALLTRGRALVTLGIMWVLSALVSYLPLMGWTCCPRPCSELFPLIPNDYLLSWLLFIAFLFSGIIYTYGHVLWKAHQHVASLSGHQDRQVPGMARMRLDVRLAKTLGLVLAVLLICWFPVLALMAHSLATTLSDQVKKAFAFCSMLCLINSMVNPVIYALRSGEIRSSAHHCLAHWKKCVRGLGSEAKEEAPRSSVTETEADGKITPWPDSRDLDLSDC
# μ-opioid receptor, sequence (P35372 whole entry): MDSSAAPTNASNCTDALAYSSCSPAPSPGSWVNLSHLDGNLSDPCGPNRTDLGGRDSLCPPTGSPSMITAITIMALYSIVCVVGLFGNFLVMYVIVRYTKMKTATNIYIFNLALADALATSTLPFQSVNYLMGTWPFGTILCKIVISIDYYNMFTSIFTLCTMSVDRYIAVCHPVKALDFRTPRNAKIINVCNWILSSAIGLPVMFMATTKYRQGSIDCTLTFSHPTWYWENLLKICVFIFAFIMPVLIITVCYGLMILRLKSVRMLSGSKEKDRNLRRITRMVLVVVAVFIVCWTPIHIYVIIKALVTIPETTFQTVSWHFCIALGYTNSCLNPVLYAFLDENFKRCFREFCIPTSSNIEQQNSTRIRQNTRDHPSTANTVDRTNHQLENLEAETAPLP
compound,measurement,setting,value
"C=C(C)[C@@H]1CCC(C)=C[C@H]1c1c(O)cc(CCCCC)cc1O [CBD, cannabidiol]",action at 5-HT1A receptor,[1],partial agonist
same,action at μ-opioid receptor,[2],allosteric modulator
same,replication of SARS-CoV-2,[3],inhibits replication
same,affinity for CB2 receptor,[4],low affinity
same,action at δ-opioid receptor,[5],allosteric modulator
